Test [1] concerns TaQ8GTC1-R protein. Put plainly: Glutathione conjugation activity of the TaQ8GTC1-R protein to pyroxasulfone (HPLC). The format is biochemical, wheat. The following applies: 30° C., 1 hour. As for the experimental part: The glutathione conjugation activity to pyroxasulfone was measured in a reaction mixture (200 μl in total) containing 50 μl of 100 mM potassium phosphate buffer (pH 6.8), 10 μl of 1 mM pyroxasulfone (acetone solution), 20 μl of 10 mM reduced glutathione (pH 7.0), and 120 μl of the TaQ8GTC1-R protein (PBS solution containing 20% glycerol), the reaction was conducted at 30° C. for 1 hour, the reaction product was filtered through a 0.2-μm filter, and 50 μl of the resulting solution was injected into HPLC. A reaction mixture (prepared with the addition of PBS containing 20% glycerol instead of the TaQ8GTC1-R protein) and another reaction mixture (prepared with the addition of PBS containing 20% glycerol and sterile water instead of the TaQ8GTC1-R protein and glutathione, respectively) were prepared as control reaction mixture. […]
Subsequently, the glutathione conjugation activity of the TaQ8GTC1-R protein to pyroxasulfone was examined. […] The amount of the protein added to the enzyme reaction mixture was determined to be 500 ng since about 50% of a total of 10 nmol of the added herbicides was converted into glutathione conjugates when the enzyme activity of the about 400 ng of TaQ8GTC0 (see Example 1) was inspected under the same conditions.

Test [2] concerns ZmY12862. Put plainly: Pyroxasulfone metabolizing activity based on fatty acid content in cultured rice cells. The format is cell-based, maize. The following applies: cultured rice cells with ZmY12862 gene; 10^−7M or 10^−6M pyroxasulfone, liquid culture 14 to 17 days. As to the method:
(§1) The transgenic cultured rice cells thus prepared were used for liquid culture in the presence of pyroxasulfone. Pyroxasulfone was added to the liquid medium as an acetone solution. The final acetone concentration was 0.1%. When liquid culture was carried out, cultured rice cells transformed with KLB-279 (a plasmid comprising Act1p (rice actin 1 promoter)::sGFP::NOSt incorporated into the MCS of PalSelect R-4) were designated as the control samples. Liquid culture was carried out as described below.
(§2) A bag of mixed salts for Murashige-Skoog medium (MS inorganic salts), 1 ml of 10 mg/ml thiamin hydrochloride, 1 ml of 5 mg/ml nicotinic acid, 1 ml of 10 mg/ml pyridoxine hydrochloride, 1 ml of 2 mg/ml glycine, 1 ml of 0.2 mg/ml 2,4-D, 30 g of sucrose, and 1 ml of 50 mg/ml myo-inositol were added into a 1-liter beaker, a pH was adjusted to 5.7, and the volume was precisely adjusted to 1,000 nil with the addition of distilled water, followed by autoclave. After 0.05 ml of pyroxasulfone was added to a 200-ml erlenmeyer flask containing 50 ml of the liquid medium, about 0.5 g of the control cultured rice cells proliferated in a solid medium of the same composition as described above further supplemented with 3 g of gellan gum and 0.25 μM BS or about 0.5 g of the transgenic cultured rice cells prepared as described above were added to the liquid medium, and culture was carried out for 14 to 17 days. After the completion of culture, the liquid medium was removed, and cultured rice cells were recovered.
(§3) One month after the transformation, cultured rice cells comprising the GST genes introduced therein were selected with the use of 0.25 μM bispyribac sodium (BS). Subsequently, the fresh cultured rice cells proliferated in the selection medium were mass-cultured in a conical beaker for approximately 1 month and then used for liquid culture in a pyroxasulfone-containing medium. When conducting liquid culture, the concentration was adjusted to 10^−7M or 10^−6M, so that pyroxasulfone would influence the fatty acid content in the cultured rice cells (Y. Tanetani et al., Pestic. Biochem. Physiol., 95, 47-55, 2009). […]
(§4) Fatty acid was extracted using undecenoic acid (C11:1) as an internal standard. As analytical standards, Supelco FAME mix containing C14:0, C16:0, C16:1, C18:0, C18:1, C18:2, C18:3, C20:0, C22:0, C22:1, and C24:0 and other fatty acid methyl esters (C11:1, C15:0, C20:1, and C26:0) were used, and calibration curves thereof were prepared, followed by quantification. […] Quantitative and qualitative analyses were carried out as methyl esters, although fatty acid methyl esters were converted into fatty acids at the time of quantitative analysis. […]

Test [3] addresses T1, ZmM16901 (Zea mays, UniProt P12653).
T1 construct: expressed in transfected cells; host or cells: cultured rice cells (Agrobacterium EHA105, PalSelect R-4-GST)
The test is described as above. The test is classed as cell-based, maize. The conditions noted are these: cultured rice cells with ZmM16901 gene; 10^−7M or 10^−6M pyroxasulfone, liquid culture 14 to 17 days. As for the experimental part:
as §1, §2, §3, §4

In test [4] the test system is ZmB6T8R4. The test is described as above. The test is classed as cell-based, maize. The conditions noted are these: cultured rice cells with ZmB6T8R4 gene; 10^−7M or 10^−6M pyroxasulfone, liquid culture 14 to 17 days. As for the experimental part:
as §1, §2, §3, §4

Test [5] concerns ZmQ9ZP61. The description is as above. The test is classed as cell-based, maize. The following applies: cultured rice cells with ZmQ9ZP61 gene; 10^−7M or 10^−6M pyroxasulfone, liquid culture 14 to 17 days. As to the method:
as §1, §2, §3, §4

In test [6] the test system is TaQ8GTB9. The description is as above. The format is cell-based, wheat. The conditions noted are these: cultured rice cells with TaQ8GTB9 gene; 10^−7M or 10^−6M pyroxasulfone, liquid culture 14 to 17 days. As for the experimental part:
The transgenic cultured rice cells thus prepared were used for liquid culture in the presence of pyroxasulfone. Pyroxasulfone was added to the liquid medium as an acetone solution. The final acetone concentration was 0.1%. When liquid culture was carried out, cultured rice cells transformed with KLB-279 (a plasmid comprising Act1p (rice actin 1 promoter)::sGFP::NOSt incorporated into the MCS of PalSelect R-4) were designated as the control samples. Liquid culture was carried out as described below. […]
as §4

Molecules are shown by their SMILES.

We go through one compound from US11198710B2, “Transgenic plant having herbicide resistance” (priority 2016, dated 2021).

T1 sequence (P12653 whole entry): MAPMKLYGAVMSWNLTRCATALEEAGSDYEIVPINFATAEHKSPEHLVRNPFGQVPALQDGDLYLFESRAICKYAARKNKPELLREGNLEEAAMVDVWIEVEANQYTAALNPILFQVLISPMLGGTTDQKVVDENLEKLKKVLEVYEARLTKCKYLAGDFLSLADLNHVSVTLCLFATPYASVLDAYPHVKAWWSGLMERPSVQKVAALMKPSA

On to `Cn1nc(C(F)(F)F)c(CS(=O)(=O)C2=NOC(C)(C)C2)c1OC(F)F` [Pyroxasulfone, 3-[5-(difluoromethoxy)-1-methyl-3-(trifluoromethyl)pyrazol-4-ylmethylsulfonyl]-4,5-dihydro-5,5-dimethyl-1,2-oxazole], for which the “glutathione conjugation activity to pyroxasulfone” value in test [1] (500 ng TaQ8GTC1-R protein) is “did not possess glutathione conjugation activity”. Besides, the “pyroxasulfone added to the reaction mixture converted into M-15” value in test [1] (equivalent in enzyme reaction mixture (500 ng protein) and reaction mixture without enzyme) is “about 3%”. Moreover, the “pyroxasulfone metabolizing activity (C15:0 and VLCFA contents)” value in test [2], in test [3], in test [4], in test [5] and in test [6] was “no pyroxasulfone metabolizing activity” each time.
